Data taken from patent US12673921B2, “Substituted fluorine-containing imidazole salt compound, preparation method therefor, pharmaceutical composition thereof and use thereof” (XIAMEN VIVOHEALTHS TECHNOLOGY CO., LTD., priority 2019, dated 2026).
One block for each compound: values may come before it.

How the values were obtained:
[1] = Liver microsome stability test, Beagle dog liver microsome; format: in vitro ADME; settings: 0.5 mg protein/mL microsome, 1 μM compound, 37° C., NADPH, read-out: DLM 0.5 T1/2 (min), half life in Beagle dog liver microsome
Method: (§1) The experimental steps were as follows: • 1. Preparation of working solution • 1.1 Intermediate solution: 5 μL of a 10 mM stock solution of sample or control was taken out, and diluted with 495 μl of methanol (Conc.: 100 μM, 99% MeOH). • 1.2 Working solution: 50 μL of the intermediate solution was taken out, and diluted with 450 μL of a 100 mM potassium phosphate buffer (Conc.: 10 μM, 9.9% MeOH). • 2. Preparation of NADPH cofactor
(§2) An appropriate amount of NADPH powder was weighed, and dissolved with a MgCl2 (10 mM) solution. • 3. Liver microsome • 3.1 Liver microsome information
(§3) • 3.2 Preparation: a microsome working solution with an appropriate concentration was prepared by using a 100 mM potassium phosphate buffer. • 4. Stop solution
(§4) Glacial acetonitrile, comprising 100 ng/ml Tolbutamide and 100 ng/ml Labetalol as internal standards. • 5. Experimental procedures • 5.1 10 μL of the working solution of sample or control was added per well to all plates (T0, T5, T10, T20, T30, T60, NCF60), except for the blank group; • 5.2 80 μL of the working solution of microsome was added per well to all plates, followed by incubation for 10 min at 37° C.; • 5.3 10 μL of a 100 mM potassium phosphate buffer was added per well to NCF60, followed by incubation at 37° C. and starting timer 1;
(§5) • 5.4 After preheating, 10 μL of NADPH was added per well to each plate, and reaction was started;
(§6) Final concentration of each component in the incubation medium:
(§7) • 5.6 300 μL of the stop solution was added per well to stop the reaction; • 5.7 The system was shaken for about 10 min; • 5.8 The samples were centrifuged (4000 rpm) at 4° C. for 20 min; • 5.9 To 8 new 96-well plates, 300 μL of HPLC water was added per well, then 100 μL of the supernatant was added, mixed and subjected to LC/MS/MS.
(§8) In the above table, HLM 0.5 T1/2 (min) refers to half life (min) of compounds in human liver microsome, DLM 0.5 T1/2 (min) refers to half life (min) of compounds in Beagle dog liver microsome.

[2] = Liver microsome stability test, human liver microsome; format: in vitro ADME; settings: 0.5 mg protein/mL microsome, 1 μM compound, 37° C., NADPH, read-out: HLM 0.5 T1/2 (min), half life in human liver microsome
Method: as §1, §2, §3, §4, §5, §6, §7, §8

AMPK = AMPK activity assay at cell level (western blot of p-AMPKα and p-ACC in MEFs); format: cell-based, mouse; settings: MEF cells, compound 10 nM, 2 h; multiple of the ratio relative to positive control AICAR (3 mM); band brightness by Image J
Method: The ability of compounds to activate AMPK in mouse embryonic fibroblasts (MEFs) was determined, which could be specifically carried out by detecting the phosphorylation level (p-AMPKα) of threonine at the 172nd position of AMPK and the phosphorylation level (p-ACC) of serine at the 79th position of the susbtrate ACC1/ACC2 of AMPK (FIG. 1 and Table I) by western blot.
The specific method was as follows: • (1) MEFs with loxP insertion sequences or of wild-type were plated in a 6-well plate and cultured in DMEM containing 10% serum. If a gene needed to be knocked out at this time, when the density of the corresponding MEFs with loxP insertion sequences reached about 30%, an adenovirus capable of expressing cre should be added to the culture well followed by further culture for more than 24 h; • (2) When the cell density was close to 90%, the cells were provided with fresh DMEM, at the same time, a compound (final concentration 10 nM) was added to the cells, followed by culture for 2 h, with an equal volume of DMSO as the negative control, and the cells treated with the addition of AICAR (3 mM) as the positive control; • (3) After sucking up the culture solution, the cells were lysed with 200 μL of a cell lysate (its formulation was given below), then the cells were scraped from the culture dish, ultrasonicated, and subjected to low temperature centrifugation at 20000 g for 10 min; • (4) The supernatant and an equal volume of 2*SDS solution (its formulation was given below) were mixed, and subjected to SDS-PAGE in a concentration of 8%, then the protein was transferred to PVDF membrane; each PVDF membrane was blocked with 25 mL of skim milk for 1 h, and then rinsed with TBST buffer (its formulation was given below) 3 times for 10 min each time; • (5) AMPKα subunit primary antibody (Cell Signaling Technology, #2532), primary antibody of phosphothreonine at the 172nd position of AMPK (Cell Signaling Technology, #2535), ACC primary antibody (Cell Signaling Technology, #3662), or primary antibody of phosphoserine at the 79th position of ACC (Cell Signaling Technology, #3661) was diluted in a ratio of 1:1000 with a primary antibody dilution (its formulation was given below), reacted with the PVDF membrane at room temperature for 12 h, and then rinsed 3 times with TBST buffer; • (6) A 1:1000 dilution of HRP-conjugated goat anti-rabbit secondary antibody (Jackson ImmunoResearch, 111-035-003) was added, reacted at room temperature for 1 h, and then rinsed 3 times with TBST buffer; • (7) The PVDF membrane was dried, reacted in an ECL mixture (WesternBright ECL HRP substrate, Advansta) and subjected to exposure with medical X-ray, developed, finally rinsed, dried, and then scanned to obtain data related to AMPK activation.
The formulations of reagents used were: • Cell lysate: 20 mM Tris-base, pH 7.5, 150 mM NaCl, 1 mM EDTA, 1 mM EGTA, 2.5 mM Sodium pyrophosphate, 1 mM β-glycerolphosphate, 1% Triton X-100 (v/v); • 2*SDS solution: 20% Glycerol (v/v), 4% SDS (m/v), 10% β-mecaptoethanol (v/v), 0.01% Bromophenol blue (m/v); • TBST buffer: 4.84% Tris-base (m/v), 8% NaCl (m/v), 0.1% Tween-20 (v/v); • Primary antibody dilution: TBST buffer containing 5% BSA (v/v).

Structure (SMILES): Cc1n(CCCCCCCCCCCC(F)(F)C(F)(F)C(F)(F)C(F)(F)C(F)(F)F)cc[n+]1Cc1c(Cl)cccc1Cl.[I-] [IB-38]
- half-life at 1 μM ([1]; microsomes): > 145 min
- half-life at 1 μM ([2]; microsomes): > 145 min
- Degree of AMPK activation, p-ACC/ACC (AMPK): 1.34
- Degree of AMPK activation, p-AMPKα/AMPK (AMPK): 2.06

Structure (SMILES): Cc1n(CCCCCCCCCCCC(F)(F)C(F)(F)C(F)(F)C(F)(F)C(F)(F)C(F)(F)F)cc[n+]1Cc1c(Cl)cccc1Cl.[Cl-] [IB-50]
- half-life at 1 μM ([1]; microsomes): 122 min
- half-life at 1 μM ([2]; microsomes): > 145 min
- Degree of AMPK activation, p-ACC/ACC (AMPK): 1.09
- Degree of AMPK activation, p-AMPKα/AMPK (AMPK): 0.65

Structure (SMILES): Cc1n(CCCCCCCCCCCC(F)(F)C(F)(F)C(F)(F)C(F)(F)C(F)(F)F)cc[n+]1Cc1c(F)cccc1Cl.[Cl-] [IB-34]
- half-life at 1 μM ([1]; microsomes): 110 min
- half-life at 1 μM ([2]; microsomes): 192 min
- Degree of AMPK activation, p-ACC/ACC (AMPK): 0.63
- Degree of AMPK activation, p-AMPKα/AMPK (AMPK): 0.98

Structure (SMILES): FC(F)(F)C(F)(F)C(F)(F)C(F)(F)C(F)(F)CCCCCCCCCCCn1cc[n+](Cc2c(Cl)cccc2Cl)c1C1CC1.[Cl-] [IB-44]
- half-life at 1 μM ([1]; microsomes): 127 min
- half-life at 1 μM ([2]; microsomes): 93 min
- Degree of AMPK activation, p-ACC/ACC (AMPK): 1.56
- Degree of AMPK activation, p-AMPKα/AMPK (AMPK): 0.59

Structure (SMILES): Cc1n(CCCCCCCCCCCC(F)(F)C(F)(F)C(F)(F)C(F)(F)F)cc[n+]1Cc1c(Cl)cccc1Cl.[Cl-] [IB-16]
- half-life at 1 μM ([1]; microsomes): > 145 min
- half-life at 1 μM ([2]; microsomes): > 145 min
- Degree of AMPK activation, p-ACC/ACC (AMPK): 0.77
- Degree of AMPK activation, p-AMPKα/AMPK (AMPK): 2.28

Structure (SMILES): Cc1n(CCCCCCCCCCCC(F)(F)C(F)(F)C(F)(F)F)cc[n+]1Cc1c(Cl)cccc1Cl.[Cl-] [IB-4]
- half-life at 1 μM ([1]; microsomes): > 145 min
- half-life at 1 μM ([2]; microsomes): > 145 min
- Degree of AMPK activation, p-ACC/ACC (AMPK): 0.80
- Degree of AMPK activation, p-AMPKα/AMPK (AMPK): 1.66

- half-life at 1 μM ([1]; liver microsomes): 8.5 min
- half-life at 1 μM ([2]; liver microsomes): 22.3 min
Structure (SMILES): Cc1n(CCCCCCCCCCCCCCCCF)cc[n+]1Cc1c(Cl)cccc1Cl.Cl [IA-1]
- Degree of AMPK activation, p-ACC/ACC (AMPK): 0.42
- Degree of AMPK activation, p-AMPKα/AMPK (AMPK): 1.01

Structure (SMILES): CC(C)c1n(CCCCCCCCCCCC(F)(F)C(F)(F)C(F)(F)C(F)(F)C(F)(F)F)cc[n+]1Cc1c(Cl)cccc1Cl.[Cl-] [IB-41]
- half-life at 1 μM ([1]; microsomes): 79.7 min
- half-life at 1 μM ([2]; microsomes): 85.3 min
- Degree of AMPK activation, p-ACC/ACC (AMPK): 1.49
- Degree of AMPK activation, p-AMPKα/AMPK (AMPK): 0.94
